Experimental data: US20250320205A1, “STAT6 DEGRADERS” (Gilead Sciences, Inc., priority 2024, published 2025)

These molecules were tested against T1, STAT6 (Homo sapiens, UniProt P42226) (assay: STAT6 Degrader Assay (HiBiT based, HeLa LgBiT clone 4.14 cells)). Details: geometric mean across assay runs and compound batches; DC50 provided for test compounds with >80% Emax; read-out: STAT6 degradation DC50.
T1 construct: These cells express endogenous STAT6; host or cells: HeLa LgBiT clone 4.14 (CRISPR knock-in of HiBiT into the endogenous STAT6 gene)
T1 sequence (P42226 1-847): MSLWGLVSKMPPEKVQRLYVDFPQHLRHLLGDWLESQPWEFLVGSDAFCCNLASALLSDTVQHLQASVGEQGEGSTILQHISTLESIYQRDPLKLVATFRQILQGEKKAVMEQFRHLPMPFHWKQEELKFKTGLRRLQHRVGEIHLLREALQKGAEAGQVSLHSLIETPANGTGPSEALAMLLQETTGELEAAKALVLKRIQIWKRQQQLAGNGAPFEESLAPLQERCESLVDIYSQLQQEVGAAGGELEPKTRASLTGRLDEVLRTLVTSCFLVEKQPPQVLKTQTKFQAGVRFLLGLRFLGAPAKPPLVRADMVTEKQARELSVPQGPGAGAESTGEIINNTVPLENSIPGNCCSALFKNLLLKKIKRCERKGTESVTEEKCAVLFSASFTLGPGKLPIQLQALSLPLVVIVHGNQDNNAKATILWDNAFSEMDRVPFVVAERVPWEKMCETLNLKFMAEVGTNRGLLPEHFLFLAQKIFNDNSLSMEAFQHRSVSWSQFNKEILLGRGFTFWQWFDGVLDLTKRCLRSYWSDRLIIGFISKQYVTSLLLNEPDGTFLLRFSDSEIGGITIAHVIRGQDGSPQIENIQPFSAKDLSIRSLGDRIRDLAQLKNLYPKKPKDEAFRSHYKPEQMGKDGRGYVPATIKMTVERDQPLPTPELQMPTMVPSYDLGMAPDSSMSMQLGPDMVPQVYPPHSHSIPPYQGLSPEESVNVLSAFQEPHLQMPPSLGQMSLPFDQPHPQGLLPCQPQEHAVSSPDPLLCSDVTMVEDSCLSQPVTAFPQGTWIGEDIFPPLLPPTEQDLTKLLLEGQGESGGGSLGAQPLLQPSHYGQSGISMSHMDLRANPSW
Format: cell-based
Summary of the method: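 HeLa LgBiT clone 4.14 with CRISPR HiBiT-tagged endogenous STAT6, 5000 cells/well, compound exposure 4-24 h at 37° C. Residual STAT6 read as Nano-Glo luminescence after 0.5 h. 50 μM terfenadine set 100% degradation; DC50 in nM.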

Structure (SMILES)	DC50 [nM]
CNc1ccn(-c2ccnc3c2cc([C@H](C)N2CC=C(c4c(C)cc(C(=O)N5CCC(CN6CCN(c7ncc(N[C@H]8CCC(=O)NC8=O)cc7F)C[C@@H]6C)CC5)cc4F)CC2)n3C)c(=O)c1 (single isomer, unassigned) [Example 2g95]	11
Cc1cc(C(=O)N2CCC(CN3CCN(c4ccc(N[C@@H]5CCC(=O)NC5=O)cc4F)CC3)CC2)cc(F)c1C1=CCN([C@@H](C)c2cc3c(-n4ccc5c(c4=O)CCN5)ccnc3n2C)CC1 (single isomer, unassigned) [Example 2g20]	6.9
Cc1cc(C(=O)N2CCC(CN3CCN(c4ccc(N[C@H]5CCC(=O)NC5=O)cc4F)C[C@H]3C)CC2)cc(F)c1C1=CCN([C@@H](C)c2cc3c(-n4ccc5c(c4=O)CCN5)ccnc3n2C)CC1 (single isomer, unassigned) [Example 2g23]	3.3

The molecules below were run on Eotaxin-3 (CCL26) release (assay: Human Whole Blood Eotaxin-3 Assay (IL-4 stimulated)). Details: Homo sapiens; geometric mean across assay runs and compound batches; EC50 provided for test compounds with >80% Emax.
Format: cell-based
Experimental: This was a human whole blood assay using recombinant human Interleukin 4 to stimulate the blood and measuring the ability of the test compounds to inhibit eotaxin-3 release. The biological activities of the test compounds have been tested in human whole blood stimulated with IL-4 measuring Eotaxin-3 release. The test compounds were added to 384 well clear flat-bottom plate in a 4-fold serial dilution in triplicates using a liquid handler. Human whole blood stabilized in lithium-heparin tubes was added in a volume of 65 μL per well, resulting in a final DMSO concentration of 0.5%. The plate is incubated for 2 h at 37° C. under 5% CO2/95% air. Subsequently, 5 μL of recombinant human IL-4 (R&D Systems, cat #204-ILB) was added to the wells to a final concentration of 400 pM. The plate was incubated for 48 h at 37° C. under 5% CO2/95% air. The plate was spun down for 10 minutes at 500×g and 20 μL supernatant was harvested and transferred to a 384 well v-bottom plate using a liquid handler and stored at −20° C. until further analysis. 10 μL supernatant was used to measure the level of Eotaxin-3 (CCL26) using Human Eotaxin-3 MSD kit from Mesocsale (Cat #K251UEK-4). The assay was performed according to the manufacture instructions.

Structure (SMILES)	EC50 [nM]
CNc1cc(=O)n(-c2ccnc3c2cc(CN2CC=C(c4c(F)cc(C(=O)N5CCC(CN6CCN(c7ccc(N[C@H]8CCC(=O)NC8=O)cc7F)CC6)CC5)cc4F)CC2)n3C)cc1F (single isomer, unassigned) [Example 2g66]	173
CNc1ccn(-c2ccnc3c2cc([C@H](C)N2CC=C(c4c(C)cc(C(=O)N5CCn6c(nnc6C6CCN(Cc7ccc(NC8CCC(=O)NC8=O)c(OC)c7)CC6)C5)cc4F)CC2)n3C)c(=O)c1 (stereo partly drawn) [Example 2g9, 3-((4-((4-(7-(3-fluoro-5-methyl-4-(1-((S)-1-(1-methyl-4-(4-(methylamino)-2-oxo-pyridin-1(2H)-yl)-1H-pyrrolo [2,3-b]pyridin-2-yl)ethyl)-1,2,3,6-tetrahydropyridin-4-yl)benzoyl)-5,6,7,8-tetra-hydro[1,2,4]triazolo[4,3-a]pyrazin-3-yl)piperidin-1-yl)-methyl)-2-methoxyphenyl)-amino)-piperidine-2,6-dione]	803
CNc1cc(=O)n(-c2ccnc3c2cc([C@H](C)N2CC=C(c4c(C)cc(C(=O)N5CCn6nc(CN7CCC(c8cc(OC)c(NC9CCC(=O)NC9=O)cc8F)CC7)cc6C5)cc4F)CC2)n3C)cc1F (stereo partly drawn) [Example 2g50, 3-((5-fluoro-4-(1-((5-(3-fluoro-4-(1-((S)-1-(4-(5-fluoro-4-(methylamino)-2-oxopyridin-1(2H)-yl)-1-meth-yl-1H-pyrrolo[2,3-b]pyridin-2-yl)ethyl)-1,2,3,6-tetrahydro-hydropyridin-4-yl)-5-methyl-benzoyl)-4,5,6,7-tetrahydro-pyrazolo[1,5-a]pyrazin-2-yl)-methyl)piperidin-4-yl)-2-methoxyphenyl)amino)piperi-dine-2,6-dione]	121
Cc1cc(C(=O)N2CCC(CN3CCN(c4ccc(NC5CCC(=O)NC5=O)cc4F)CC3)CC2)cc(F)c1C1=CCN([C@@H](C)c2cc3c(-n4cc(F)c5c(c4=O)CCN5)ccnc3n2C)CC1 (stereo partly drawn) [Example 2g31, 3-((3-fluoro-4-(4-((1-(3-fluoro-4-(1-((S)-1-(4-(7-fluoro-4-oxo-1,2,3,4-tetra-hydro-5H-pyrrolo[3,2-c]pyridin-5-yl)-1-methyl-1H-pyrrolo[2,3-b]pyridin-2-yl)-ethyl)-1,2,3,6-tetrahydro-pyridin-4-yl)-5-methylbenzo-yl)-piperidin-4-yl)methyl)-piperazin-1-yl)phenyl)-amino)piperidine-2,6-dione]	268

Second part, the molecule after the results:

EC50 [nM]	Structure (SMILES)
51.7	CNc1cc(=O)n(-c2ccnc3c2cc([C@@H](C)N2CCC(c4c(F)cc(C(=O)N5CCn6nc(CN7CCC(c8ccc(NC9CCC(=O)NC9=O)cc8F)CC7)cc6C5)cc4F)CC2)n3C)cc1F (stereo partly drawn) [Example 2g51, 3-((4-(1-((5-(3,5-difluoro-4-(1-((R)-1-(4-(5-fluoro-4-(methylamino)-2-oxopyridin-1(2H)-yl)-1-methyl-1H-pyrrolo[2,3-b]pyridin-2-yl)-ethyl)piperidin-4-yl)benzoyl)-4,5,6,7-tetrahydropyrazolo [1,5-a]pyrazin-2-yl)methyl)-piperidin-4-yl)-3-fluorophen-yl)amino)piperidine-2,6-dione]
8.8	C[C@@H](c1cc2c(-n3cc(F)c4c(c3=O)CCN4)ccnc2n1C)N1CC=C(c2c(F)cc(C(=O)N3CCn4nc(CN5CCC(c6ccc(NC7CCC(=O)NC7=O)cc6F)CC5)cc4C3)cc2F)CC1 (stereo partly drawn) [Example 2g3, 3-((4-(1-((5-(3,5-difluoro-4-(1-((S)-1-(4-(7-fluoro-4-oxo-1,2,3,4-tetrahydro-5H-pyrrolo [3,2-c]pyridin-5-yl)-1-methyl-1H-pyrrolo[2,3-b]pyridin-2-yl)ethyl)-1,2,3,6-tetrahydro-pyridin-4-yl)benzoyl)-4,5,6,7-tetrahydropyrazolo[1,5-a]pyrazin-2-yl)methyl)piperi-din-4-yl)-3-fluorophenyl)-amino)piperidine-2,6-dione]
18.7	CNc1nc(=O)n(-c2ccnc3c2cc(CN2CCC(c4c(F)cc(C(=O)N5CCn6nc(CN7CCC(c8ccc(NC9CCC(=O)NC9=O)c(OC)c8)CC7)cc6C5)cc4F)CC2)n3C)cc1F (stereo not drawn) [Example 2c50, 3-((4-(1-((5-(3,5-difluoro-4-(1-((4-(5-fluoro-4-(methyl-amino)-2-oxopyrimidin-1(2H)-yl)-1-methyl-1H-pyr-rolo[2,3-b]pyridin-2-yl)meth-yl)piperidin-4-yl)benzoyl)-4,5,6,7-tetrahydropyrazolo-[1,5-a]pyrazin-2-yl)methyl)-piperidin-4-yl)-2-methoxy-phenyl)amino)piperidine-2,6-dione]
9.5	CNc1ccn(-c2ccnc3c2cc([C@H](C)N2CC=C(c4c(C)cc(C(=O)N5CCC(CN6CCN(c7ncc(N[C@@H]8CCC(=O)NC8=O)cc7F)C[C@H]6C)CC5)cc4F)CC2)n3C)c(=O)c1 (single isomer, unassigned) [Example 2g115]
1.7	CNc1nc(=O)n(-c2ccnc3c2cc([C@H](C)N2CC=C(c4c(C)cc(C(=O)N5CCn6nc(CN7CCC(c8ccc(NC9CCC(=O)NC9=O)c(OC)c8)CC7)cc6C5)cc4F)CC2)n3C)cc1F (stereo partly drawn) [Example 2g8, 3-((4-(1-((5-(3-fluoro-4-(1-((S)-1-(4-(5-fluoro-4-(meth-ylamino)-2-oxopyrimidin-1(2H)-yl)-1-methyl-1H-pyrrolo[2,3-b]pyridin-2-yl)-ethyl)-1,2,3,6-tetrahydro-pyridin-4-yl)-5-methylbenzo-yl)-4,5,6,7-tetrahydropyrazolo [1,5-a]pyrazin-2-yl)methyl)-piperidin-4-yl)-2-methoxy-phenyl)amino)-piperidine-2,6-dione]
12.9	CNc1ccn(-c2ccnc3c2cc([C@H](C)N2CC=C(c4c(C)cc(C(=O)N5CCC(CN6CCN(c7ccc(NC8CCC(=O)NC8=O)c(OC)c7)CC6)CC5)cc4F)CC2)n3C)c(=O)c1 (stereo partly drawn) [Example 2g125, 3-((4-(4-((1-(3-fluoro-5-meth-yl-4-(1-((S)-1-(1-methyl-4-(4-(methylamino)-2-oxopyridin-1(2H)-yl)-1H-pyrrolo[2,3-b]pyridin-2-yl)ethyl)-1,2,3,6-tetrahydropyridin-4-yl)benzo-yl)piperidin-4-yl)methyl)-piperazin-1-yl)-2-methoxy-phenyl)amino)piperidine-2,6-dione]
8.7	CNc1ccn(-c2ccnc3c2cc([C@H](C)N2CC=C(c4c(F)cc(C(=O)N5CCC(CN6CCN(c7ccc(N[C@@H]8CCC(=O)NC8=O)cc7F)CC6)CC5)cc4F)CC2)n3C)c(=O)c1 (single isomer, unassigned) [Example 2g105]
25.7	CNc1cc(=O)n(-c2ccnc3c2cc([C@H](C)N2CC=C(c4c(C)cc(C(=O)N5CCC(CN6CCN(c7ncc(NC8CCC(=O)NC8=O)cc7F)CC6)CC5)cc4F)CC2)n3C)cc1F (stereo partly drawn) [Example 2g64, 3-((5-fluoro-6-(4-((1-(3-fluoro-4-(1-((S)-1-(4-(5-fluoro-4-(methylamino)-2-oxopyridin-1(2H)-yl)-1-meth-yl-1H-pyrrolo[2,3-b]pyridin-2-yl)ethyl)-1,2,3,6-tetrahydro-pyridin-4-yl)-5-methylbenzo-yl)piperidin-4-yl)methyl)-piperazin-1-yl)pyridin-3-yl)-amino)piperidine-2,6-dione]
